Test results: ChEMBL document CHEMBL1126965, “Synthesis and vitro antibacterial activity of hygromycin a analogs modified at the C4 aryl position” (1993)
In brackets after ≈: the same amount, converted by molar mass.

Tests used:
Format in all cases: functional
[1] = system: Brachyspira hyodysenteriae; test: In vitro antibacterial activity against Serpulina (Treponema) hyodysenteriae
[2] = system: Brachyspira hyodysenteriae; test: In vitro antibacterial activity against Serpulina (Treponema) hyodysenteriae was tested and is expressed as minimum inhibitory concentration: Value ranges from (50-100 ug/mL)
[3] = system: Brachyspira hyodysenteriae; test: In vitro antibacterial activity against Serpulina (Treponema) hyodysenteriae was tested and is expressed as minimum inhibitory concentration: Value ranges from (0.78-1.56 ug/mL)
[4] = system: Brachyspira hyodysenteriae; test: In vitro antibacterial activity against Serpulina (Treponema) hyodysenteriae was tested and is expressed as minimum inhibitory concentration: Value ranges from (3.13-6.25 ug/mL)
[5] = system: Brachyspira hyodysenteriae; test: In vitro antibacterial activity against Serpulina (Treponema) hyodysenteriae was tested and is expressed as minimum inhibitory concentration: Value ranges from (12.5-25 ug/mL)
[6] = system: Brachyspira hyodysenteriae; test: In vitro antibacterial activity against Serpulina (Treponema) hyodysenteriae was tested and is expressed as minimum inhibitory concentration: Value ranges from (6.25-12.5 ug/mL)
[7] = system: Brachyspira hyodysenteriae; test: In vitro antibacterial activity against Serpulina (Treponema) hyodysenteriae was tested and is expressed as minimum inhibitory concentration: Value ranges from (0.39-0.78 ug/mL)
[8] = system: Brachyspira hyodysenteriae; test: In vitro antibacterial activity against Serpulina (Treponema) hyodysenteriae was tested and is expressed as minimum inhibitory concentration: Value ranges from ([…] ug/mL)

Row | Structure (SMILES) | MIC [1] [mg/L] | other results
1 | C=C(C)COc1ccc(/C=C(\C)C(=O)N[C@@H]2[C@H](O)[C@@H](O)[C@H]3OCO[C@H]3[C@@H]2O)cc1O | 3.13 (≈ 7.43 µM) | 
2 | C/C(=C\c1cccc(O)c1)C(=O)N[C@@H]1[C@H](O)[C@@H](O)[C@H]2OCO[C@H]2[C@@H]1O | > 200 | 
3 | C/C(=C\c1ccc(-c2ccccc2)cc1)C(=O)N[C@@H]1[C@H](O)[C@@H](O)[C@H]2OCO[C@H]2[C@@H]1O | 12.5 (≈ 30.4 µM) | 
4 | C/C(=C\c1ccc(OCCO)c(O)c1)C(=O)N[C@@H]1[C@H](O)[C@@H](O)[C@H]2OCO[C@H]2[C@@H]1O |  | MIC [2]: 50 mg/L (≈ 122 µM)
5 | C/C(=C\c1ccc(OCOCCO)c(O)c1)C(=O)N[C@@H]1[C@H](O)[C@@H](O)[C@H]2OCO[C@H]2[C@@H]1O | 25 (≈ 56.6 µM) | 
6 | CC(=O)C1O[C@@H](Oc2ccc(/C=C(\C)C(=O)N[C@@H]3[C@H](O)[C@@H](O)[C@H]4OCO[C@H]4[C@@H]3O)cc2O)[C@@H](O)C1Sc1ccccc1 (some centres undefined) | > 100 | 
7 | CC(=O)C1=C[C@H](O)[C@H](Oc2ccc(/C=C(\C)C(=O)N[C@@H]3[C@H](O)[C@@H](O)[C@H]4OCO[C@H]4[C@@H]3O)cc2O)O1 | 25 (≈ 50.7 µM) | 
8 | C/C(=C\c1ccc(N2CCCC2)c(F)c1)C(=O)N[C@@H]1[C@H](O)[C@@H](O)[C@H]2OCO[C@H]2[C@@H]1O | 6.25 (≈ 14.8 µM) | 
9 | C=CCOc1ccc(/C=C(\C)C(=O)N[C@@H]2[C@H](O)[C@@H](O)[C@H]3OCO[C@H]3[C@@H]2O)cc1F | 1.56 (≈ 3.81 µM) | 
10 | CCCCOc1ccc(/C=C(\C)C(=O)N[C@@H]2[C@H](O)[C@@H](O)[C@H]3OCO[C@H]3[C@@H]2O)cc1O | 1.56 (≈ 3.68 µM) | 
11 | CC(=O)[C@H]1O[C@@H](Oc2ccc(/C=C(\C)C(=O)N[C@@H]3[C@H](O)[C@@H](O)[C@H]4OCO[C@H]4[C@@H]3O)cc2O)[C@@H](O)[C@@H]1O [HYGROMYCIN A] |  | MIC [3]: 0.78 mg/L (≈ 1.52 µM)
12 | CSC1C(C(C)=O)O[C@@H](Oc2ccc(/C=C(\C)C(=O)N[C@@H]3[C@H](O)[C@@H](O)[C@H]4OCO[C@H]4[C@@H]3O)cc2O)[C@H]1O (some centres undefined) | > 100 | 
13 | C/C(=C\c1ccc(N2CCCC2)cc1)C(=O)N[C@@H]1[C@H](O)[C@@H](O)[C@H]2OCO[C@H]2[C@@H]1O | 6.25 (≈ 15.5 µM) | 
14 | C/C(=C\c1ccc(OCc2cccs2)c(O)c1)C(=O)N[C@@H]1[C@H](O)[C@@H](O)[C@H]2OCO[C@H]2[C@@H]1O |  | MIC [4]: 3.13 mg/L (≈ 6.75 µM)
15 | C/C(=C\c1ccc(OCCF)c(O)c1)C(=O)N[C@@H]1[C@H](O)[C@@H](O)[C@H]2OCO[C@H]2[C@@H]1O | 6.25 (≈ 15.1 µM) | 
16 | CCNc1ccc(/C=C(\C)C(=O)N[C@@H]2[C@H](O)[C@@H](O)[C@H]3OCO[C@H]3[C@@H]2O)cc1O | 100 (≈ 254 µM) | 
17 | CCCNc1ccc(/C=C(\C)C(=O)N[C@@H]2[C@H](O)[C@@H](O)[C@H]3OCO[C@H]3[C@@H]2O)cc1O |  | MIC [5]: 12.5 mg/L (≈ 30.6 µM)
18 | C/C(=C\c1ccc(OCc2ccccc2)c(O)c1)C(=O)N[C@@H]1[C@H](O)[C@@H](O)[C@H]2OCO[C@H]2[C@@H]1O | 25 (≈ 54.6 µM) | 
19 | CSCCCOc1ccc(/C=C(\C)C(=O)N[C@@H]2[C@H](O)[C@@H](O)[C@H]3OCO[C@H]3[C@@H]2O)cc1O |  | MIC [3]: 0.78 mg/L (≈ 1.71 µM)
20 | C/C(=C\c1ccc(O)c(O)c1)C(=O)NC1[C@@H](O)[C@@H]2OCO[C@@H]2[C@H](O)[C@H]1O (some centres undefined) | 200 (≈ 544 µM) | 
21 | CCCOc1ccc(/C=C(\C)C(=O)N[C@@H]2[C@H](O)[C@@H](O)[C@H]3OCO[C@H]3[C@@H]2O)cc1O |  | MIC [3]: 0.78 mg/L (≈ 1.91 µM)
22 | C=CCOc1ccc(/C=C(\C)C(=O)N[C@@H]2[C@H](O)[C@@H](O)[C@H]3OCO[C@H]3[C@@H]2O)cc1O | 0.78 (≈ 1.91 µM) | 

Row | Structure (SMILES) | MIC [1] [mg/L] | other results
23 | CCOCOc1ccc(/C=C(\C)C(=O)N[C@@H]2[C@H](O)[C@@H](O)[C@H]3OCO[C@H]3[C@@H]2O)cc1O | 25 (≈ 58.8 µM) | 
24 | CCCN(CC)c1ccc(/C=C(\C)C(=O)N[C@@H]2[C@H](O)[C@@H](O)[C@H]3OCO[C@H]3[C@@H]2O)cc1O | > 200 | 
25 | COc1ccc(/C=C(\C)C(=O)N[C@@H]2[C@H](O)[C@@H](O)[C@H]3OCO[C@H]3[C@@H]2O)cc1O | 12.5 (≈ 32.8 µM) | 
26 | CCCCc1ccc(/C=C(\C)C(=O)N[C@@H]2[C@H](O)[C@@H](O)[C@H]3OCO[C@H]3[C@@H]2O)cc1O |  | MIC [4]: 3.13 mg/L (≈ 7.68 µM)
27 | CCOc1ccc(/C=C(\C)C(=O)N[C@@H]2[C@H](O)[C@@H](O)[C@H]3OCO[C@H]3[C@@H]2O)cc1O | 1.56 (≈ 3.95 µM) | 
28 | C/C(=C\c1ccc(OC2CCCC2)c(O)c1)C(=O)N[C@@H]1[C@H](O)[C@@H](O)[C@H]2OCO[C@H]2[C@@H]1O | 6.25 (≈ 14.4 µM) | 
29 | C/C(=C\c1ccc(OCC(O)CO)c(O)c1)C(=O)N[C@@H]1[C@H](O)[C@@H](O)[C@H]2OCO[C@H]2[C@@H]1O (some centres undefined) | 25 (≈ 56.6 µM) | 
30 | C#CCOc1ccc(/C=C(\C)C(=O)N[C@@H]2[C@H](O)[C@@H](O)[C@H]3OCO[C@H]3[C@@H]2O)cc1O | 6.25 (≈ 15.4 µM) | 
31 | C=CCNc1ccc(/C=C(\C)C(=O)N[C@@H]2[C@H](O)[C@@H](O)[C@H]3OCO[C@H]3[C@@H]2O)cc1O |  | MIC [5]: 12.5 mg/L (≈ 30.8 µM)
32 | C/C(=C\c1ccc(N)c(O)c1)C(=O)N[C@@H]1[C@H](O)[C@@H](O)[C@H]2OCO[C@H]2[C@@H]1O | > 200 | 
33 | C/C(=C\c1ccc(Cc2ccccc2)c(O)c1)C(=O)N[C@@H]1[C@H](O)[C@@H](O)[C@H]2OCO[C@H]2[C@@H]1O | > 200 | 
34 | C=CC(C)Oc1ccc(/C=C(\C)C(=O)N[C@@H]2[C@H](O)[C@@H](O)[C@H]3OCO[C@H]3[C@@H]2O)cc1O (some centres undefined) | 25 (≈ 59.3 µM) | 
35 | COc1ccc(/C=C(\C)C(=O)N[C@@H]2[C@H](O)[C@@H](O)[C@H]3OCO[C@H]3[C@@H]2O)cc1F |  | MIC [6]: 6.25 mg/L (≈ 16.3 µM)
36 | C#CCOc1ccc(/C=C(\C)C(=O)N[C@@H]2[C@H](O)[C@@H](O)[C@H]3OCO[C@H]3[C@@H]2O)cc1F | 6.25 (≈ 15.3 µM) | 
37 | C/C(=C\c1ccc(OCC2CC2)c(O)c1)C(=O)N[C@@H]1[C@H](O)[C@@H](O)[C@H]2OCO[C@H]2[C@@H]1O |  | MIC [7]: 0.39 mg/L (≈ 0.925 µM)
38 | CCCCc1ccc(/C=C(\C)C(=O)N[C@@H]2[C@H](O)[C@@H](O)[C@H]3OCO[C@H]3[C@@H]2O)cc1 |  | MIC [5]: 12.5 mg/L (≈ 31.9 µM)
39 | C/C(=C\c1ccc(F)c(F)c1)C(=O)N[C@@H]1[C@H](O)[C@@H](O)[C@H]2OCO[C@H]2[C@@H]1O | > 200 | 
40 | CC(=O)[C@@H]1C[C@H](O)[C@H](Oc2ccc(/C=C(\C)C(=O)N[C@@H]3[C@H](O)[C@@H](O)[C@H]4OCO[C@H]4[C@@H]3O)cc2O)O1 | > 100 | 
41 | C=CCN(C(C)=O)c1ccc(/C=C(\C)C(=O)N[C@@H]2[C@H](O)[C@@H](O)[C@H]3OCO[C@H]3[C@@H]2O)cc1O | > 200 | 
42 | CCCCCOc1ccc(/C=C(\C)C(=O)N[C@@H]2[C@H](O)[C@@H](O)[C@H]3OCO[C@H]3[C@@H]2O)cc1O | > 200 | 
43 | C/C(=C\c1ccc(OCC(N)=O)c(O)c1)C(=O)N[C@@H]1[C@H](O)[C@@H](O)[C@H]2OCO[C@H]2[C@@H]1O | > 200 | 
44 | CC(=O)CCCOc1ccc(/C=C(\C)C(=O)N[C@@H]2[C@H](O)[C@@H](O)[C@H]3OCO[C@H]3[C@@H]2O)cc1O |  | MIC [8]: 12.5 mg/L (≈ 27.7 µM)
